Where a name gives a salt, the structure may show the parent alone.
target: T1, Calcium sensing receptor (hCaSR) (Homo sapiens, UniProt P41180); experiment: In-vitro assay of calcimimetics through modulation of calcium sensing receptor: increase in intracellular calcium [Ca2+]i, FLIPR; assay type: cell-based; settings: stably transfected HEK293 cells expressing hCaSR; Fluo4NW dye; 0.3 mM CaCl2; 8-point assay; read-out: EC50 Range
T1 construct: expressed in transfected cells
T1 sequence (P41180 20-1078): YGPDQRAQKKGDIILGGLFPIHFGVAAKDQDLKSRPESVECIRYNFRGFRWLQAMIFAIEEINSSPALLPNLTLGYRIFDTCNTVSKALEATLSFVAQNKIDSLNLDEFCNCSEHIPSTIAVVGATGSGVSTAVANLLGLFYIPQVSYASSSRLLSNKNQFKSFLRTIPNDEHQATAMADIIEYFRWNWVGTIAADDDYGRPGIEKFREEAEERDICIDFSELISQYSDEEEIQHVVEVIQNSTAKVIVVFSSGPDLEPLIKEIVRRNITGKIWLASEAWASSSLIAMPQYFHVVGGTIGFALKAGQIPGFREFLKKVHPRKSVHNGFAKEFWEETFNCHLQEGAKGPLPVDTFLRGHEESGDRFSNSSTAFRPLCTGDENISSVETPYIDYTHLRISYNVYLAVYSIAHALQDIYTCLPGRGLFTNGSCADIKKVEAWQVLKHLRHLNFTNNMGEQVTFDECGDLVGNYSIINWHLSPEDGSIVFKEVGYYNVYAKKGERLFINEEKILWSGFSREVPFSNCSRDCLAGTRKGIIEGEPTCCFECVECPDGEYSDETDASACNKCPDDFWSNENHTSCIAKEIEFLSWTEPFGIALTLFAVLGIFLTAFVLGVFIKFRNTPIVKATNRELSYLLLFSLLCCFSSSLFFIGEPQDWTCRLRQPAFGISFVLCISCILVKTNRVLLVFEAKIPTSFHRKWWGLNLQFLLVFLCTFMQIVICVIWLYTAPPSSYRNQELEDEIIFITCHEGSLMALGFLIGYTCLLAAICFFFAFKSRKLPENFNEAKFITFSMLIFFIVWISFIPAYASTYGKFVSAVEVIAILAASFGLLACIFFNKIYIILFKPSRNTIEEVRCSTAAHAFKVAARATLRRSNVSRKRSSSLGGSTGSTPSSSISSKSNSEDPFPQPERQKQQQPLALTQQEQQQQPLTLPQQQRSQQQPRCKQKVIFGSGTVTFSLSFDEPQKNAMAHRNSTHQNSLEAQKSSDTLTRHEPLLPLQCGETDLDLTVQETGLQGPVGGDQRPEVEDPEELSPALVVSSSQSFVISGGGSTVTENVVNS
Description: In-Vitro Assay Method of Calcimemtics Through Modulation of Calcium Sensing Receptor (CaSR):
The ability of the compounds to modulate Calcium sensing receptor is determined by measuring an increase in intracellular calcium [Ca^2+]i. Stably transfected HEK293 cells expressing hCaSR_pTriEx-3 hygro vector are developed. Cells are grown overnight on a 96-well plate to 80% confluency in Ham's F12 containing 20% FBS at 37° C., 5% CO2. Subsequently, cells are washed extensively with 20 mM HEPES buffer containing 126 mM NaCl, 1 mM MgCl2 and 4 mM KCl to remove serum components that might interfere with the assay. Cells are loaded with calcium sensing Fluo4NW dye in HEPES base buffer containing 0.1% BSA and 1 mg/ml glucose for 30 minutes to measure changes in intracellular calcium. The activities of the compounds are measured in FLIPR using 0.3 mM CaCl2 in 20 mM HEPES base buffer. The effectiveness of the compound to modulate receptor activity is determined by calculating the EC50 responses for that compound in an 8-point assay and plotted using GraphPad Prism 5.

Compound	EC50 [nM]
Cc1ccc(N2CC(CN[C@H](C)c3cccc4ccccc34)Oc3cc(F)ccc32)cc1C(=O)O (stereo partly drawn) [Example 84, 5-(7-Fluoro-2-((((R)-1-(naphthalen-1-yl)ethyl)amino)methyl)-2H-benzo[b][1,4]oxazin-4(3H)-yl)-2-methyl benzoic acid hydrochloride]	20 to 50
C[C@@H](NCCC1CN(c2cccc(C(=O)O)c2)c2cc(F)ccc2O1)c1cccc2ccccc12 (single isomer, unassigned) [Example 167b]	20 to 50
COc1cc(C(=O)O)cc(N2CC(CN[C@H](C)c3cccc4ccccc34)Oc3ccccc32)c1 (stereo partly drawn) [Example 54, 3-Methoxy-5-(2-((((R)-1-(naphthalen-1-yl)ethyl)amino)methyl)-2H-benzo [b][1,4]oxazin-4(3H)-yl) benzoic acid hydrochloride]	50 to 200
CC(C)c1ccc(N2CC(CCN[C@H](C)c3cccc4ccccc34)Oc3ccccc32)cc1C(=O)O (stereo partly drawn) [Example 137a, 2-Isopropyl-5-(2-(2-(((R)-1-(naphthalen-1-yl)ethyl)amino)ethyl)-2H-benzo[b] [1,4]oxazin-4(3H)-yl) benzoic acid hydrochloride]	50 to 200
Cc1ccc(N2CC(CN[C@H](C)c3cccc4ccccc34)Oc3ccccc32)cc1C(=O)O (single isomer, unassigned) [Example 71b, hydrochloride]	< 20
C[C@@H](NCC1CN(c2cc(F)cc(C(=O)O)c2)c2ccccc2O1)c1cccc2ccccc12 (stereo partly drawn) [Example 72, 3-Fluoro-5-(2-((((R)-1-(naphthalen-1-yl)ethyl)amino)methyl)-2H-benzo [b][1,4]oxazin-4(3H)-yl) benzoic acid hydrochloride]	50 to 200
C[C@@H](NCC1CN(c2ccc(C(=O)O)cc2)c2ccccc2O1)c1cccc2ccccc12 (stereo partly drawn) [Example 6, 4-(2-((((R)-1-(Naphthalen-1-yl)ethyl)amino)methyl)-2H-benzo[b][1,4]oxazin-4(3H)-yl)benzoic acid hydrochloride]	50 to 200
C[C@@H](NCCC1CN(c2ccc(CCC(=O)O)cc2)c2ccccc2O1)c1cccc2ccccc12 (stereo partly drawn) [Example 139a, 3-(4-(2-(2-(((R)-1-(Naphlhalen-1-yl)ethyl)amino)ethyl)-2H-benzo [b][1,4]oxazin-4(3H)-yl)phenyl)propanoic acid hydrochloride]	< 20
C[C@@H](NCCC1CN(c2cccc(OCC(=O)O)c2)c2c(F)cccc2O1)c1cccc2ccccc12 (single isomer, unassigned) [Example 171a, hydrochloride]	< 20
C[C@@H](NCCC1CN(c2ccc(OCC(=O)O)cc2)c2cccc(F)c2O1)c1cccc2ccccc12 (single isomer, unassigned) [Example 164a, hydrochloride]	< 20
C[C@@H](NCC1CN(c2cccc(OCC(=O)O)c2)c2ccccc2O1)c1cccc2ccccc12 (stereo partly drawn) [Example 50, 2-(3-(2-((((R)-1-(naphthalen-1-yl)ethyl)amino)methyl)-2H-benzo[b] [1,4]oxazin-4(3H)-yl)phenoxy)acetic acid hydrochloride]	20 to 50
COc1ccc(C(=O)O)cc1N1CC(CN[C@H](C)c2cccc3ccccc23)Oc2ccccc21 (single isomer, unassigned) [Example 55a, hydrochloride]	50 to 200
C[C@@H](NCC1CN(c2ccc(O)c(C(=O)O)c2)c2ccccc2O1)c1cccc2ccccc12 (single isomer, unassigned) [Example 66b, hydrochloride]	< 20
C[C@@H](NCC1CN(c2ccc(O)c(C(=O)O)c2)c2ccccc2O1)c1cccc2ccccc12 (single isomer, unassigned) [Example 66a, hydrochloride]	20 to 50

Results, then the molecule that gave them:

EC50 [nM]	Compound
< 20	Cc1ccc(N2CC(CCN[C@H](C)c3cccc4ccccc34)Oc3ccc(F)cc32)cc1C(=O)O (single isomer, unassigned) [Example 166a, hydrochloride]
< 20	C[C@@H](NCC1CN(c2ccc(C(=O)O)c(C(F)(F)F)c2)c2ccccc2O1)c1cccc2ccccc12 (single isomer, unassigned) [Example 64b, hydrochloride]
< 20	Cc1ccc(N2CC(CN[C@H](C)c3cccc4ccccc34)Oc3ccccc32)c(C)c1C(=O)O (single isomer, unassigned) [Example 70b, hydrochloride]
< 20	C[C@@H](NCCC1CN(c2ccc(C(F)(F)F)c(C(=O)O)c2)c2ccccc2O1)c1cccc2ccccc12 (stereo partly drawn) [Example 135a, 5-(2-(2-(((R)-1-(Naphthalen-1-yl)ethyl)amino)ethyl)-2H-benzo [b][1,4]oxazin-4(3H)-yl)-2-(trifluoromethyl) benzoic acid hydrochloride]
< 20	COC(=O)c1cc(N2CC(CN[C@H](C)c3cccc4ccccc34)Oc3ccccc32)ccc1C (single isomer, unassigned) [Example 31b]
< 20	C[C@@H](NCCC1CN(c2cccc(C(=O)O)c2)c2cc(F)ccc2O1)c1cccc2ccccc12 (single isomer, unassigned) [Example 167a]
< 20	Cc1cc(N2CC(CN[C@H](C)c3cccc4ccccc34)Oc3ccccc32)ccc1C(=O)O (single isomer, unassigned) [Example 73b, hydrochloride]
